# According to publication PMC4125815, “Crystal structure of tRNA m^1A58 methyltransferase TrmI from Aquifex aeolicus in complex with S-adenosyl-L-methionine” (Journal of Structural and Functional Genomics, 2014):
# Biological target: T1, A. aeolicus TrmI (Aquifex aeolicus, UniProt O66653)
# T1 construct: gene aq_311
# Assay: X-ray crystal structure of the complex, […] Å
# Format: binding
# Conditions: co-crystallised with 2 mM AdoMet, pH 8.4, 20 °C; methyl donor site in C-terminal domain, 4 AdoMet per tetramer
# T1 sequence (O66653 1-248): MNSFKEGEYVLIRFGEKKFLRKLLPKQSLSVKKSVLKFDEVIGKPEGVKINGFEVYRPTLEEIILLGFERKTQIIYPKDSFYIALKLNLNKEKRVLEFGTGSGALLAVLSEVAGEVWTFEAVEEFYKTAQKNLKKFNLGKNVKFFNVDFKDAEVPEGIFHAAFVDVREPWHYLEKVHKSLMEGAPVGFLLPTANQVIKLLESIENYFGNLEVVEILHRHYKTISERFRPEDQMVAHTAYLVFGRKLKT
smiles,measurement,value
C[S+](CC[C@H](N)C(=O)O)C[C@H]1O[C@@H](n2cnc3c(N)ncnc32)[C@H](O)[C@@H]1O (stereo partly shown) [AdoMet],"X-ray crystal structure of the complex, 2.2 Å",The methyl donor AdoMet is bound in the C-terminal domain of the protein
